Assay results taken from patent publication EP2571872B1, “COMPOUNDS” (Treherne, Johnathan Mark, priority 2010, dated 2011).

Columns and labels:
SH SY5Y cells = assay: Cell viability assay for amyloid toxicity using MTT reduction; type: cell-based; settings: protection of SH SY5Y cells from a toxic insult of 10µM Aβ(1-42), MTT reduction as measure of cell viability, 24 h incubation
Experimental: Aβ(1-42) was prepared for amyloid aggregation and toxicity assays by dissolving Aβ(1-42) HCl salt in hexafluoroisopropanol (HFIP), with brief sonication and vortexing. This solution of the Aβ(1-42) peptide in HFIP was stored at 4°C @ 2mM. When required, an aliquot of this stock solution was freeze-dried and dissolved in DMSO to 200 times the required final assay concentration (e.g. 2mM for a final assay concentration of 10 µM).
A 20mM stock solution of each test compound was prepared in DMSO, and aliquots of these solutions were used to prepare further stock solutions of each test compound in DMSO, ranging in concentration from 3µM up to 10mM. These stock solutions were prepared for use as and when required and stored at -20°C (maximum of 3 freeze-thaw cycles). The 20mM parent stock solutions were stored frozen at -20 °C.
The activity of compounds in protecting SH SY5Y cells from a toxic insult of 10µM Aβ(1-42) was assessed by using inhibition of MTT reduction as a measure of cell viability. An aliquot (3µl) of test compound [various concentrations] in DMSO is added to 294 µl of Opti-Mem (containing 2% FBS, 1% Pen/Strep, 1% L-Gln) {daughter plate}. The well is mixed thoroughly. Then an aliquot (3 µl) of Aβ(1-42) [2mM] is added to the daughter plate wells and again mixed thoroughly. 50 µl is then aspirated and dispensed into wells containing 50 µl media + SH SY5Ycells (cells are also plated in Opti-Mem, at ∼ 30,000 cells/well/50 µl). […]
Cell plates are incubated for 24 h and then the MTT assay (Shearman, 1999), is performed. […] The plate was shaken and the absorbance was recorded at both 570 nm and 650 nm. ΔA values were calculated by subtracting absorbance at 650 nm from absorbance at 570 nm, to reduce non-specific background absorbance. ΔA values from equivalent experiments were averaged and % cell viability was determined as follows: % cell viability = ([ΔA(sample)-ΔA(deal cell control)] x 100%)/([ΔA(live cell control)-ΔA(dead cell control)]) [formula] • Live cell controls: 1% DMSO in Opti-Mem • Dead cell controls: 0.1% Triton X-100 added to cells […]

[1] = system: rat hippocampal brain slices; assay: Long-term potentiation (LTP) in hippocampal brain slices, Aβ(1-42)-induced depression of LTP; settings: compound at 3µM, Schaffer collateral stimulation
Experimental: Long-term potentiation (LTP) is a natural, prolonged electrophysiological response associated with the neurological processes of learning and short-term memory, which are affected in Alzheimer's disease. […] LTP was measured using stimulation of Schaffer collaterals in rat hippocampal brain slices, as described below.
20µL of 5mM Example 1 in DMSO was added to the stock Aβ(1-42) (1mL) and agitated at 37°C for 24hr. On the experimental day the mixture is diluted to 33mL in aCSF (32mL) immediately prior to use. The final concentration of Example 1 was 3µM. The final concentration of Aβ(1-42) was 1µM and the final concentration of DMSO was 0.06% […]
Schaffer collaterals were stimulated (3-22V, 0.1ms pulse width, 0.03Hz) with a concentric bipolar electrode and the evoked extracellular field excitatory postsynaptic potentials (fEPSPs) were recorded via an Axoclamp 2A amplifier from the stratum radiatum of the CA1 region of the hippocampus with a glass capillary microelectrode filled with 4M NaCl (resistance 2-4 MΩ). […] A 10 minute stable baseline period (control) was recorded followed by administration of test compound 10 minutes prior to high frequency stimulation (1sec 100Hz train) applied three times at 10 minute intervals with an 80 minute wash of test compound after the final high frequency stimulation protocol. […]

Compound | IC50 (SH SY5Y cells; Homo sapiens) | toxic effect of 1µM Aβ(1-42) on LTP [1] | IC50 (SH SY5Y cells)
Fc1cccc2c1OCCN2c1ncc(Oc2cccc(N3CCOCC3)c2)cn1 [Example 1, 8-Fluoro-4-[5-(3-morpholinophenoxy)pyrimidin-2-yl]-3,4-dihydro-2H-benzo[1,4]oxazine] | 23 µM | effectively blocked | 
Oc1cccc(Nc2ccc(Nc3cccc(O)c3)nn2)c1 [RS-0406, reference compound] |  |  | 35 µM
Fc1ccc2c(c1)N(c1ncc(Oc3cccc(N4CCOCC4)c3)cn1)CCO2 [Example 2, 6-Fluoro-4-[5-(3-morpholinophenoxy)pyrimidin-2-yl]-3,4-dihydro-2H-benzo[1,4]oxazine] | 26 µM |  | 
